Earlier results as cited in patent US20100105750A1, “STABLE METRONIDAZOLE GEL FORMULATIONS” (NYCOMED US INC., priority 2008, published 2010).

water soluble: 4 g/100 mL
SMILES: OCc1ccccc1 [benzyl alcohol]
